According to ChEMBL document CHEMBL1129179, “Antimicrobial evaluation of 3,1-benzoxazin-4-ones, 3,1-benzothiazin-4-ones, 4-alkoxyquinazolin-2-carbonitriles and N-arylimino-1,2,3-dithiazoles” (1996):
Activity calls are given as the source filed them.

How the values were obtained:
Assay type in all cases: functional, organism-based
Enterococcus faecalis = test: Antibacterial activity against gram-positive bacteria Enterococcus faecalis ATCC 29212; No effect
Staphylococcus aureus = test: Antibacterial activity against gram-positive bacteria Staphylococcus aureus ATCC 9144; No effect
Salmonella typhimurium = test: Antibacterial activity against gram-negative bacteria Salmonella ser. Typhimurium; No effect; settings: Salmonella enterica subsp. enterica serovar Typhimurium
Salmonella enterica = test: Antibacterial activity against gram-negative bacteria S. choleraesuis; No effect
Proteus mirabilis = test: Antibacterial activity against gram-negative bacteria Proteus mirabilis CIP 1031811; No effect
Listeria monocytogenes = test: Antibacterial activity against gram-positive bacteria Listeria monocytogenes CIP 82110T; No effect
Streptococcus pyogenes = test: Antibacterial activity against gram-positive bacteria Streptococcus pyogenes ATCC 19165; No effect
Pseudomonas aeruginosa = test: Antibacterial activity against gram-negative bacteria Pseudomonas aeruginosa ATCC 27853; No effect
Escherichia coli = test: Antibacterial activity against gram-negative bacteria Escherichia coli ATCC 25922; No effect
Klebsiella pneumoniae = test: Antibacterial activity against gram-negative bacteria K. pneumoniae; No effect

Measured: Activity

N#Cc1nc2ccccc2c(=O)o1
inactive: all assays above

COc1cc2nc(C#N)nc(OC)c2cc1OC
inactive: all assays above

CCOc1nc(C#N)nc2ccccc12
inactive: all assays above

COc1cc2nc(C#N)sc(=O)c2cc1OC
inactive: all assays above

COc1cc2nc(C#N)oc(=O)c2cc1OC
inactive: all assays above

COc1cc2nc(C#N)nc(OC(C)C)c2cc1OC
inactive: all assays above

N#Cc1nc2ccccc2c(=O)s1
inactive: all assays above

COc1nc(C#N)nc2ccccc12
inactive: all assays above
